According to article PMC8838415, “Discovery of Novel Pleuromutilin Derivatives as Potent Antibacterial Agents for the Treatment of MRSA Infection” (Molecules, 2022):
pIC50, pKd: −log10 of the molar value. Values after ≈ are worked out from the molar mass of the structure shown. Where two headings read alike, the source gives them in different places.

Key:
S. aureus (144) = test: MIC and MBC, broth dilution, S. aureus 144; type: cell-based; conditions: Staphylococcus aureus; S. aureus 144 (clinical strain)
Protocol: (§1) The synthesized pleuromutilin derivatives 8–30 were tested against four Gram-positive bacteria (MRSA ATCC 43300, S. aureus ATCC 29213 and two clinical strains of S. aureus (AD3 and 144) isolated from Guangdong Province). Tiamulin was used as the positive control in this experiment.
(§2) MIC values were tested following our previous work. The derivatives were dissolved in an aqueous solution of 2.5% tween-80 and 2.5% DMSO to make a solution with a concentration of 1000 µg/mL. The solution was diluted 12 times with MH broth to give a concentration range of 32–0.01 µg/mL. The bacteria (5 × 10^5 CFU/mL) were added in each well. For each compound concentration, three parallel experiments were set. The 96-well plate was incubated for 22–26 h at 37 °C. The MIC value was recorded as the minimal concentration that inhibits the visible growth of tested bacteria completely.
(§3) The MBC of these pleuromutilin derivatives were tested according to a previously reference. […] Then, the values of MBC were determined by laying 100 μL aliquots from the wells onto the MH agar plates without visible growth. The MH agar plate was cultured for a further 22–26 h at 37 °C.

MRSA ATCC 43300 = system: MRSA ATCC 43300; set-up: method as in PMID 33137559; conditions: cited from earlier work
S. aureus (ATCC 29213) = test: MIC and MBC, broth dilution, S. aureus ATCC 29213; type: cell-based; conditions: Staphylococcus aureus, ATCC29213
Protocol: as §1, §2, §3

MRSA = test: Neutropenic murine thigh infection model; type: in vivo, mice; conditions: 20 mg/kg intravenously, 24 h, compared to the no-drug control group
Protocol: The neutropenic murine thigh infection model experiment was performed as described in the literature. Six-week-old SPF-ICR female mice weighing 24–28 g were used for this study. The mice were injected with cyclophosphamide (Mead Johnson Pharmaceuticals, Evansville, Indiana—IN, USA) at a dose of 150 mg/kg 4 days and at a dose of 100 mg/kg 1 day before the experiment to reduce neutrophils and achieve immunosuppression (<0.1 × 10^9/L). A total of 0.1 mL MH broth (MRSA concentration approximately 10^7 CFU/mL) was injected into the posterior thigh of mice to establish the infection model. After the thighs of the mice were infected for 2 h, these mice were randomly divided into 3 groups (3 per group). […] A total of 24 h after the completion of the drug, the mice were euthanized and their thigh tissues were collected. Then, their thigh tissues were weighed and homogenized, respectively, in 3 mL of iced sterile saline. Tissue homogenate was serially diluted 10-fold and plated on MH agar. The resulting bacterial colonies were determined after incubation for 24 h.

50S ribosome = test: SPR interaction and affinity analysis; type: binding, S. aureus ATCC 43300; conditions: 4 °C
Protocol: S. aureus ATCC 43300 was used to prepare the 50S ribosomal subunit the same way as described previously. Cells were grown overnight in Brain Heart Infusion broth at 37 °C and harvested for 1.5 h at an OD600. Cells were washed with 10 mM Tris-HCl twice at pH = 7.5, and resuspended in 5 mL buffer A (20 mM HEPES-HCl pH = 7.5, 21 mM Mg(OAc)2, 100 mM NH4Cl, 1 mM DTT, 1 mM EDTA). Cells were broken by an ultrasound crusher. The lysate was centrifuged for 90 min at 20,000× g to clear cell debris.
The solution was layered on a sucrose cushion of 15 mL (10 mM Hepes-KOH pH 7.5, 25 mM Mg(OAc)2, 500 mM KCl, […], 1 mM DTT, 0.5 mM EDTA). Centrifugation was carried out for 15 h at 45,000 rpm using an ultracentrifuge Beckman (Beckman Coulter, Shanghai, China), Type 70Ti rotor. The crude ribosome pellet was resuspended in buffer E (10 mM Hepes-KOH pH 7.5, 10 mM Mg(OAc)2, 100 mM KCl, 1 mM DTT, 0.5 mM EDTA), then layered on 9 mL of 7–30% sucrose gradient and centrifuged in an ultracentrifuge Beckman, type SW40Ti rotor at 17,100 rpm for 15 h. The gradient was analyzed on the AKTA explorer system (Amersham, UK). The fractions corresponding to the 50S ribosomal subunit were collected and further subjected to precipitation by PEG 20,000. The 50S ribosomal subunit pellet was gently dissolved in 200 µL of storage buffer (10 mM HEPES-HCl pH = 7.5, 10 mM Mg(OAc)2, 15 mM KCl, 60 mM NH4Cl, 1 mM DTT) and stored at −80 °C.
SPR affinity analysis was performed on the bScreen LB 991 Label-free Microarray System (Berthold Technologies, Black Forest, Germany) at 4 °C and Biodot AD-1520 Array Printer (BIODOT Inc., Irvine, CA, USA) with a Photo-cross-linker SensorCHIP™. Concentrations of each compound were diluted to 100 μM with DMSO as the printing working solution for immobilization. A Biodot AD-1520 Array Printer (BIODOT Inc., CA, USA) was used to control the photo-cross-linker sensor chip and print samples. Each sample was printed four times. In order to check the chip quality and check whether the detection system works, DMSO was used as a system-negative control and rapamycin as a positive control. All positive control dots were divided into four groups and printed on the four corners of the sensor chip. The sensor chip was dried in vacuum after the array print and quickly transferred to a spectra radiator for a photo cross-linking reaction. The sensor chip was washed with C2H5OH, DMF and H2O in turn and evaporated in a N2 atmosphere for 15 min. Then, the Flowcell Cover were assembled.
The 50S ribosome was diluted separately to 200 nM, 400 nM, 800 nM, 1600 nM and 3200 nM with PBST (pH = 7.4, 0.1% Tween 20). Different concentrations of ribosome solutions were injected at a flow rate of 0.5 μL⋅s^−1 for 600 s at the associating stage at 4 °C, followed by PBST at a flow rate of 0.5⋅μL·s^−1 for 360 s at each dissociating stage. Then, the surface was regenerated with Glycine-HCl (pH = 2.0) at a flow rate of 2⋅μL·s^−1 for 300 s.
The raw data of the binding process of compounds and the 50S ribosome were recorded in real time. We compared the response unit (RU) of surface resonance to determine the different binding affinity between each sample dot. The process and analysis of association rate constants (Ka) and dissociation rate constants (Kd) and the equilibrium dissociation constant (KD, Kd/Ka) were performed using the data analysis software of the bScreen LB 991 Label-free Microarray System according to a single-site binding model (1:1 Langmuir binding) with mass transfer limitations for binding kinetics determination.

S. aureus (AD3) = test: MIC and MBC, broth dilution, S. aureus AD3; type: cell-based; conditions: Staphylococcus aureus; S. aureus AD3 (clinical strain)
Protocol: as §1, §2, §3

[1] = system: methicillin-resistant S. aureus (ATCC 43300); test: MIC and MBC, broth dilution, MRSA ATCC 43300; type: cell-based; conditions: Staphylococcus aureus
Protocol: as §1, §2, §3

CYP3A4 = CYP3A4 (Homo sapiens, UniProt P08684); conditions: read-out: IC50 CYP3A4, cited from earlier work
Sequence of CYP3A4 (P08684 whole entry): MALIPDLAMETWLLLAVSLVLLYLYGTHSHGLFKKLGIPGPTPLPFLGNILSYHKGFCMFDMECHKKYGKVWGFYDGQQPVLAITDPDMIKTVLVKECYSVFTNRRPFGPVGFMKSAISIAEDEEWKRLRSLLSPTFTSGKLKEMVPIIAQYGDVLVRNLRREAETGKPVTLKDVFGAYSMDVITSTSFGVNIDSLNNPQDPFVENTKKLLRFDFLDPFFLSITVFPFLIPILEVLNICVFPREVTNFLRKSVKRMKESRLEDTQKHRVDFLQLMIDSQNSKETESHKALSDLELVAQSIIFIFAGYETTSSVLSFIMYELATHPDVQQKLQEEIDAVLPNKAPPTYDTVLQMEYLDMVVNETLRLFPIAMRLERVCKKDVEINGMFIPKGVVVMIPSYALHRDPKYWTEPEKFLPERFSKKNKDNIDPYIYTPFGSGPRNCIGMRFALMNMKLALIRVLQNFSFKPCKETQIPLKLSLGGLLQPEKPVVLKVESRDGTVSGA

MIC (S. aureus (144)): 1 mg/L (≈ 2.03 µM) | MIC (S. aureus (ATCC 29213)): 0.5 mg/L (≈ 1.01 µM) | Avg kd (50S ribosome; 1:1 Langmuir binding): 3.03e-06 s⁻¹ | pKd (50S ribosome; KD = Kd/Ka): 7.60 | MIC (S. aureus (AD3)): 1 mg/L (≈ 2.03 µM) | MIC [1]: 0.25 mg/L (≈ 0.506 µM)
SMILES: C=C[C@]1(C)C[C@@H](OC(=O)CSCCN(CC)CC)[C@]2(C)[C@H](C)CC[C@]3(CCC(=O)[C@H]32)[C@@H](C)[C@@H]1O [Tiamulin, tiamulin, reference compound]
MBC (S. aureus (144)): 8 mg/L (≈ 16.2 µM) | PAE (MRSA ATCC 43300; 2× MIC): 1.65 h | PAE (MRSA ATCC 43300; 4× MIC): 2.04 h | MBC (S. aureus (ATCC 29213)): 1 mg/L (≈ 2.03 µM) | reduction of MRSA load in thigh (MRSA): ~ 0.6 log10 CFU/mL | Avg ka (50S ribosome; 1:1 Langmuir binding): 121 M⁻¹ s⁻¹ | MBC (S. aureus (AD3)): 1 mg/L (≈ 2.03 µM) | MBC [1]: 0.25 mg/L (≈ 0.506 µM) | pIC50 (CYP3A4): 5.79 | pIC50 (CYP3A4; converted with MW): 5.79
